In a melting point compilation (Tetko et al.; mined from patent text by program, amines drawn as free bases though some values may be those of a salt):

Compound | melting point [°C]
CN(c1ccc(OC2CCCC2)cc1)S(C)(=O)=O | 120 to 122
CC(C)[C@H](N=Cc1cccc(-c2ccccc2)c1O)C(=O)O | 140 to 141
OC(CCCc1ccc(Cl)cc1)Cn1ccnc1 (stereo not given) | 84 to 85
OC1CCCC1Oc1ccc(Oc2ccccc2)cc1 (stereo not given) | 62 to 65
Cc1oc2c(-c3ccc(F)cc3)c(-c3ccc(S(C)(=O)=O)cc3)nn2c1-c1ccc(Cl)s1 | 222 to 223
CC(C)c1nsc2ccc(-n3c(=O)cc(C(F)(F)F)n(C)c3=O)cc12 | 139 to 140
CCOC(=O)Cn1c(-c2ccc(Cl)cc2)nc2cccnc21 | 123 to 124
Cn1cnc([N+](=O)[O-])c1CBr | 130 to 132
Cc1cc(C2=C(c3ccc(S(C)(=O)=O)cc3)C(C)(C)OC2=O)ccc1-c1cscn1 | 80.3
COc1cc(-n2nc(C(=O)N(C)C)c3c4ccc(Cl)cc4n(C)c3c2=O)ccn1 | 237 to 238
Cc1ccc(-c2c(C#N)c(CC(C)C)nc3ccc(OCc4ccccc4)cc23)cc1 | 137 to 138
COc1ccccc1N1CCN(CCC2C(=O)NCN3CCC4SC=C(C4=O)C(=O)C23)CC1 (stereo not given) | 162 to 164
Cc1ccc(Cn2nc(C(=O)O)cc2-c2ccc(F)cc2)cc1Cl | 120
CCOC(=O)c1ccc(-c2cccc(-c3ccc4c(c3)C(C)(C)CCC4(C)C)c2O)cc1 | 121
Nc1cc2c(Nc3ccc4c(cnn4Cc4cccc(F)c4)c3)ncnc2cn1 | 241 to 244
COc1ccc(S(=O)(=O)CC(O)(CS(=O)(=O)c2ccc(-c3ccccc3)cc2)C(=O)NO)cc1 (stereo not given) | 72 to 76
CS(=O)(=O)OCCNc1ccc([N+](=O)[O-])cc1Cl | 114 to 115
COc1ccc2ccc3[nH]c4ccc5ccc(OC)cc5c4c3c2c1 | 133
CC(C)(C)c1cccc(Br)c1Oc1ccc(O)nn1 | 255 to 257
COC(=O)c1cccc(CC(=O)Nc2cccc(/C=C/c3nc(C4CCC4)cs3)c2)c1 | 119 to 120
CC1(C)Oc2ccc(C(F)(F)F)cc2C(n2ccccc2=O)=C1CN(O)C(=O)C(F)(F)F | 208
Nc1nc(N)nc(-c2cnccn2)n1 | > 250
Clc1nccc2scc(Br)c12 | 153 to 155
CCCCCCCCCCNC(=O)c1cc(NCCC(=O)O)c(CCC(=O)O)c(C(=O)NCCCCCCCCCC)c1 | 139 to 141
NC(=S)c1cc(F)c2ncc(C(=O)NCc3ccc(Cl)cc3)c(O)c2c1 | 247 to 248

Compound | melting point [°C]
COC(=O)c1nc(Cc2ccccc2)n2c1CN=C(c1ccccc1Cl)c1cc(Cl)ccc1-2 | 155 to 158
CN1CCC(Oc2ccc(Br)cc2C(N)=O)C1 (stereo not given) | 160 to 162
CCCCCc1cnc(-c2ccc(SC)cc2)nc1 | 52
CCc1nc2c(c(C)c(C)n3nnnc23)n1CCOCCN1CCCS1(=O)=O | 176 to 178
CCCCCCCCCCCC1=NCCN1CCOCCO | 58 to 60
CCCCCCCCCCCOc1cccc(CCCC(N)(CO)CO)c1 | 71 to 72
CCCCCCCCCCCCCCCCOCC1OCCCC1=O (stereo not given) | 42 to 43.5
Fc1ccc2[nH]cc(Cc3cccnc3)c2c1 | 109 to 112
CN(CCc1ccc([N+](=O)[O-])cc1)Cc1cc2cc([N+](=O)[O-])ccc2s1 | 76 to 78
Cc1ccc(S(=O)(=O)N2CCCC2c2ccc(Cl)cc2)cc1 (racemic) | 121
CC(C)CCCC(C)C1CCC2C3C=CC4=CC(=O)C5OC5C4(C)C3CCC12C (stereo not given) | 107 to 109
CO[C@@H]1C[C@H]2[C@H](C(=O)O)[C@H]2[C@]1(N)C(=O)O | > 250
Cc1cc(-c2nnn[nH]2)cc2c(=O)c3cccnc3oc12 | 290 to 291
CC(C)(C)CNS(=O)(=O)c1cccc([N+](=O)[O-])c1 | 99
CCn1cc(OC(=O)c2ccccc2)c(=O)c2ccccc21 | 190 to 192
CCS(=O)(=O)Nc1cc(-n2ncc(=O)n(C)c2=O)c(F)cc1C#N | 233
Cc1cc(C2=NN(C(=S)NN)[C@H](C)Cc3cc4c(cc32)OCO4)ccc1[N+](=O)[O-] | 109 to 115
Cc1cccc(N(C)C(=O)COc2cc(C(F)(F)F)no2)c1 | 54 to 55.5
CC(c1ccc(C=Cc2ccccc2)o1)N(O)C(N)=O (stereo not given) | 140
Cc1ccc(-c2cncnc2Cl)cc1 | 67 to 70
C#CCCCCOc1cc(C=O)ccc1OC | 66 to 67
O=C(Nc1ccc(C(F)(F)F)cc1)NC1CCN(S(=O)(=O)c2ccc(C(=O)O)cc2)CC1 | 188 to 192
CCCc1nc(C)nc(NN)c1Cc1ccc(-c2ccccc2C#N)cc1 | 156
CC(C)(C)c1cc(-c2nnc(C(N)=O)s2)cc(C(C)(C)C)c1O | 200 to 201
CCOC(=O)c1cn(CC)c2nc(N3CCC(NCC(C)=O)C3)c(F)cc2c1=O (stereo not given) | 212 to 213

Compound | melting point [°C]
COc1ccc(OCC2CC(Cn3ccnc3)(c3ccc4ccccc4c3)N(C)O2)cc1 (stereo not given) | 143 to 145
CCOC(=O)c1cc(-c2ccc(Cl)c(Cl)c2)nn1C | 122 to 124
FC(F)(F)c1cc(OCc2ccc(-c3ccccc3-c3nnn(C(c4ccccc4)(c4ccccc4)c4ccccc4)n3)cc2)c2c(n1)CCCC2 | 141 to 143
CCCCCCOc1ccc(C=[N+]([O-])C(C)(C)C)cc1OCC | 35.5
COC(=O)COc1ccc(C(=O)CN2CCN(c3ccncc3)CC2)cc1 | 150 to 152
N#Cc1cnn2c(C(F)(F)F)cc(-c3cccc(F)c3)nc12 | 199
Cc1cc(C)c(OP(=O)(C(=O)c2c(C)cc(C)cc2C)c2ccccc2)c(C)c1 (stereo not given) | 94 to 96
O=CNn1cc(C(=O)O)c(=O)c2cc3c(cc21)OCO3 | 302
Cc1nc2c(N)nc3ccccc3c2n1CCOCCNC(=O)Nc1ccccc1 | 193 to 195
COc1nc2ccccc2c(=O)n1O | 220
c1ccc(-c2ccc(-c3nc(-c4ccc(-c5ccccc5)cc4)nc(-c4ccc(-c5ccccc5)cc4)n3)cc2)cc1 | 283
O=C(c1n[nH]c2c(=O)[nH]c3cc(Cl)ccc3c(=O)c12)N(O)Cc1ccccc1 | 282 to 285
Cc1cccc(C(=O)CC2CCCN(C)C2)c1 (stereo not given) | 92 to 94
COc1cccc(Oc2c(NS(=O)(=O)c3ccc(C(C)(C)C)cc3)ncnc2OCCOc2cccnn2)c1 | 170
CC(C)C(C)(C)[Si](C)(C)OC1CCC2(C)C(=CC=C3C4CCC(=O)C4(C)CCC32)C1 (stereo not given) | 119 to 125
O=C1CCC(Cc2ccc3ccccc3c2)=C1O | 120 to 122
CCc1cc(CC)c2ccc(=O)[nH]c2n1 | 159 to 161
O=Cc1cc2c(cc1O)CCCO2 | 97 to 100
CCCCCCCCc1cnc(-c2ccc(OC)c(F)c2)nc1 | 58.7 to 59
CN1CCN(c2ccccc2C2=NC(C)(C)CO2)C(c2cccs2)C1 (stereo not given) | 114 to 115
COc1cc(C=O)ccc1OCc1nc(-c2cccc(C#N)c2)oc1C | 166 to 167
C=CCc1cc(-c2nc(C)no2)ccc1O | 135 to 137
C[C@@H]1CCCN1CCc1ccc2cc(-c3ccc(=O)[nH]n3)ccc2c1 | 295 to 298
C/C(=C(\C#N)C(N)=S)N1CCCN(c2ccc(Br)cc2)CC1 | 152 to 155
O=c1cc(-c2ccccc2)c2cc(C(c3ccccc3)n3ccnc3)ccc2[nH]1 (stereo not given) | 253

Compound | melting point [°C]
Cc1ccc2c3c(ccc2n1)OCC(CN1C2CCC1CC(O)(c1ccc4ccccc4c1)C2)O3 (stereo not given) | 218
O=C1c2c(F)ccc(F)c2C(=O)N1CCN1CCC(c2noc3cc(F)ccc23)CC1 | 144 to 145
O=c1[nH]nc(-c2ccc(-n3ccnc3)cc2)c2ccccc12 | 310 to 311
Cc1cc(O)cc(C)c1N=Cc1ccc(O)cc1O | 193 to 197
CCCNC(=S)NS(=O)(=O)c1cc2c(cc1OC)OCCC2CNC(=O)c1cc(Cl)ccc1OC (stereo not given) | 183 to 184
CCc1nn2c(-c3ccc(OC)cc3Cl)cccc2c1N(CC)CCCF | 76.6 to 79.6
CCCc1c(OCCCS(=O)(=O)c2ccc(C(=O)NCC(=O)O)cc2)ccc(C(C)=O)c1O | 171 to 173
CC(=O)Nc1ccc(-c2cccc(C3=NC(C)(C)Cc4cc(O)c5c(c43)CC(C)(C)O5)c2)cc1 | 185 to 189
CC(=O)Nc1ccc(CSc2nc3cnccc3[nH]2)cc1 | 231 to 234
CN1C(=O)N(c2ccccc2Br)Cc2cnc(Nc3ccc4c(c3)OCC(CO)O4)nc21 (stereo not given) | 156 to 158
CC(CCNC(=O)CC#N)NC(=O)CC#N (stereo not given) | 145
CCCCc1cc2ccccc2c(Cc2ccc(C(=O)O)cc2)n1 | 112
O=c1nc(NCCCCc2ncccc2Cl)[nH]cc1C(O)c1ccncc1 (stereo not given) | 90
Cc1ccc2ccccc2c1N(C(=O)CCl)C1COC(=O)C1 (stereo not given) | 121 to 122
N#Cc1ccc(-c2ccc(N3CC(CI)CC3=O)cc2)cc1 (stereo not given) | 178 to 179
CCOC(=O)c1cc(-n2c(=O)cc(C)[nH]c2=O)ccc1Cl | 220 to 223
COc1ccc2cc(CCCOCCCCCCNCC(O)c3cc(Cl)c(N)c(Cl)c3)ccc2c1 (stereo not given) | 102 to 104
Cc1nc2c(OCc3ccccc3)cccn2c(=O)c1CCCl | 141
COc1nc(OC)nc(SC(C(=O)O)C2CCCC2)n1 (stereo not given) | 106 to 110
COc1nsc(S(C)(=O)=O)c1C#N | 167 to 168
CC(C)Oc1ccc(-c2nn(C(C)c3oc4ccccc4c(=O)c3-c3cccc(F)c3)c3ncnc(N)c23)cc1F (stereo not given) | 204 to 206
CSc1c(C2=C(c3cn(C)c4ccccc34)C(=O)NC2=O)c2ccccc2n1C | 281 to 283
COC(=O)c1cnc(C(=O)OC)c([N+](=O)[O-])c1 | 82 to 86
COc1ccc(/C=C/C(=O)C2C(=O)CC(c3ccc(OC)cc3)C([N+](=O)[O-])C2c2cccc([N+](=O)[O-])c2)cc1 (stereo not given) | 204 to 206
CCOC(=O)CCc1ccc2c(c1)nc(N)c1nc(CC)n(CC3CCOCC3)c12 | 172 to 173
